From ChEMBL document CHEMBL3714739, “Compounds for the treatment of pain and screening methods therefor” (2008)

biological target: Mas-related G-protein coupled receptor member X1 (Homo sapiens) (UniProt Q96LB2); experiment: Activation of human MrgX1 receptor expressed in NIH/3T3 cells incubated for 5 days by beta-galactosidase reporter gene assay relative to Bam22; type: cell-based; settings: NIH3T3
Sequence (Q96LB2 whole entry): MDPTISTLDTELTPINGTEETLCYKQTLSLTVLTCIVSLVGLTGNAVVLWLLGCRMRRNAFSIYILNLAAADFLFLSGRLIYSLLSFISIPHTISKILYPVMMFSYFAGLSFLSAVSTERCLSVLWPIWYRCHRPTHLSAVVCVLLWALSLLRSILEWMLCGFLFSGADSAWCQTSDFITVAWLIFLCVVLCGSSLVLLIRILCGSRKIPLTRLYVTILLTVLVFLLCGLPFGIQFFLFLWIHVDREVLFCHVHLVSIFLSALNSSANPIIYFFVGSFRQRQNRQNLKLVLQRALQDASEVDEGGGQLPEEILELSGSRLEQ

**Q.** How did the Efficacy turn out when `N=C(N)NCCC[C@H](C(N)=O)n1c(-c2cccc(Oc3ccccc3)c2)nc2cc(C(=O)Nc3ccc4cn[nH]c4c3)ccc21` was run?
**A.** 221%

**Q.** How did the Efficacy turn out when `N=C(N)NCCC[C@H](C(N)=O)n1c(-c2cccc(Oc3ccccc3)c2)nc2cc(C(=O)N3CCOCC3)ccc21` was run?
**A.** 203%

**Q.** `N=C(N)NCCC[C@@H](C(N)=O)n1c(-c2cccc(Oc3ccccc3)c2)nc2cc(C(=O)NCc3cccc(C(F)(F)F)c3)ccc21` was tested. Which Efficacy did it give?
**A.** 95%

biological target: T1, Mas-related G-protein coupled receptor member X2 (Homo sapiens) (UniProt Q96LB1); experiment: Activation of human MrgX2 receptor expressed in NIH/3T3 cells incubated for 5 days by beta-galactosidase reporter gene assay relative to STIA; type: cell-based; settings: NIH3T3
T1 sequence (whole entry): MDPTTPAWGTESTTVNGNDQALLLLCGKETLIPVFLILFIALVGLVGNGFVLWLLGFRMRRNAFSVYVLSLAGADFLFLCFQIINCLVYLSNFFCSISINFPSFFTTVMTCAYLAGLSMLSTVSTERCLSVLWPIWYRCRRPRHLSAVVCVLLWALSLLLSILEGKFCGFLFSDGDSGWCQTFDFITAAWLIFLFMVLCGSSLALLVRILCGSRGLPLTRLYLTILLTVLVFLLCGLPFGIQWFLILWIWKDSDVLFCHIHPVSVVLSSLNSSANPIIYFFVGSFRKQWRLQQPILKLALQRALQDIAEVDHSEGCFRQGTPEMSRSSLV

**Q.** How did the Efficacy turn out when `N=C(N)NCCC[C@H](C(N)=O)n1c(-c2cccc(Oc3ccccc3)c2)nc2cc(C(=O)Nc3ccc4cn[nH]c4c3)ccc21` was run?
**A.** 2%

**Q.** For `N=C(N)NCCC[C@H](C(N)=O)n1c(-c2cccc(Oc3ccccc3)c2)nc2cc(C(=O)N3CCOCC3)ccc21`, which Efficacy is on record?
**A.** 6%

**Q.** With `N=C(N)NCCC[C@@H](C(N)=O)n1c(-c2cccc(Oc3ccccc3)c2)nc2cc(C(=O)NCc3cccc(C(F)(F)F)c3)ccc21` as the compound, how does the Efficacy read?
**A.** 21%
